Series [1] in a line: Forced swim test. In kind it is in vivo, C57BL/6J mice. The note with it: 25 h after.
Series [2] has as its target hERG (KV11.1) channel (Homo sapiens, UniProt Q12809). The note with it: read-out: IC50 (hERG inhibition). For orientation: Block of hERG is tested as a sign of cardiac risk.
Series [3] concerns the target α1B (Homo sapiens, UniProt P35368). In words: G protein dissociation BRET assay. In kind it is cell-based. As to conditions: read-out: KB (antagonist).
For series [4], the target named is 5-HT7a (Homo sapiens, UniProt P34969). In words: cAMP accumulation GloSensor assay. As to conditions: read-out: EC50 (inverse agonism). In kind it is cell-based. On the technique in general: Cyclic AMP is a second messenger, typically raised through Gs and lowered through Gi signalling.
Chain of 5-HT7a (P34969 1-445 isoform P34969-2): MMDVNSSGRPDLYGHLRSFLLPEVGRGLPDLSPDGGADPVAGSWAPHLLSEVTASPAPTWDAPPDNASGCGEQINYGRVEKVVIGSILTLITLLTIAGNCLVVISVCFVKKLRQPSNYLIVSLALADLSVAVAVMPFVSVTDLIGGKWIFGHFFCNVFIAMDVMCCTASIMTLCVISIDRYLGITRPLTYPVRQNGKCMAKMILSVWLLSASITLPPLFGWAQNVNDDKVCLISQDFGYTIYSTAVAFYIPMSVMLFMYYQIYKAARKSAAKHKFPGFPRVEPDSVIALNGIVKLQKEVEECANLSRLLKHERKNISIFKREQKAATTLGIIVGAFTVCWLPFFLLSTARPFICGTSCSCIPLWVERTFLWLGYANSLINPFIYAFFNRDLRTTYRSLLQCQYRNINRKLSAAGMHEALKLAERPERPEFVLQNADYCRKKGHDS
Series [5] can be described thus: Chronic variable stress: splash test. In kind it is in vivo, female mice. The note with it: 1X 3 mg/kg and 4X 1 mg/kg groups.
For series [6], the system named is head-twitch response. In words: Head-twitch response.
For series [7], the target named is 5-HT2C (Homo sapiens, UniProt P28335). In kind it is cell-based. The note with it: Gq partial agonism.
Chain of 5-HT2C (P28335 33-458): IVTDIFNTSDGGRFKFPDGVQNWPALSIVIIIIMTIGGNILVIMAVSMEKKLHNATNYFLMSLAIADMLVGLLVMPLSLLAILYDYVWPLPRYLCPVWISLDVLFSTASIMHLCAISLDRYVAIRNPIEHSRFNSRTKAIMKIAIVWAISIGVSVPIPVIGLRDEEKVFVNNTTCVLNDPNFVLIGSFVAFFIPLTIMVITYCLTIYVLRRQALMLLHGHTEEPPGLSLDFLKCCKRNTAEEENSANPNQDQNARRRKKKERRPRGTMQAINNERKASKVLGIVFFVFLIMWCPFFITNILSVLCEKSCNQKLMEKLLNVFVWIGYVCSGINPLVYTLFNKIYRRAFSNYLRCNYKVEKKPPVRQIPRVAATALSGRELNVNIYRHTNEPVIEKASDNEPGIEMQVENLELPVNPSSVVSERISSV
The target in series [8] is H2 (Homo sapiens, UniProt P25021). The series can be described thus: G protein dissociation BRET assay. In kind it is cell-based.
Chain of H2 (P25021 whole entry): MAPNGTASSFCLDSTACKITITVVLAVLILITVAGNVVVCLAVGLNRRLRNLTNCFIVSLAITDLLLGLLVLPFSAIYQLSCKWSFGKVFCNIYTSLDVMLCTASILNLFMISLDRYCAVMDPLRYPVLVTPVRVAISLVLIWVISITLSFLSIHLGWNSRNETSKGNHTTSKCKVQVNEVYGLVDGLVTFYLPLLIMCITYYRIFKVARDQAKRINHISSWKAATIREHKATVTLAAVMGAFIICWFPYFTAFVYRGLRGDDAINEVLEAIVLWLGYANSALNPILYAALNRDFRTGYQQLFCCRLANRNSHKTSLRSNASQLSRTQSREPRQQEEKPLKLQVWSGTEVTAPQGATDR
The target in series [9] is 5-HT4 (Homo sapiens, UniProt Q13639). The series can be described thus: G protein dissociation BRET assay. It counts as cell-based. (In general: BRET reads energy transfer from a luciferase to a nearby fluorophore.)
Chain of 5-HT4 (Q13639 whole entry): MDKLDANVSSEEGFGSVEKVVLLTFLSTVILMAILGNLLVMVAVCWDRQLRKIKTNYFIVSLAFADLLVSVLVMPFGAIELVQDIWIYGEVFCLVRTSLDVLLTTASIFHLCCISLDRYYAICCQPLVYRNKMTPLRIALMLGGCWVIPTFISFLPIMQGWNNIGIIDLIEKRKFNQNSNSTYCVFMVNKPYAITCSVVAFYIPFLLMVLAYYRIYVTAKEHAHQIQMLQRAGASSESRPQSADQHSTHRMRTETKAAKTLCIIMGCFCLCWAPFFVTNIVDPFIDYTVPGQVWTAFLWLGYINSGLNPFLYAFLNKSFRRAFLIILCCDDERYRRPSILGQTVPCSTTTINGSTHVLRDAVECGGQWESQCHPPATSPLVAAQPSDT
Series [10] has as its target α2B (Homo sapiens, UniProt P18089). The series can be described thus: G protein dissociation BRET assay. In kind it is cell-based. As to conditions: read-out: KB (antagonist).

Structures are written as SMILES.

As a reminder, the IC50 is the midpoint of a concentration-inhibition curve. A word on the Kb: it is the affinity of an antagonist, worked out from how it opposes an agonist. As a reminder, the EC50 is the concentration at which the effect is half-maximal.

Chain of α2B (P18089 whole entry): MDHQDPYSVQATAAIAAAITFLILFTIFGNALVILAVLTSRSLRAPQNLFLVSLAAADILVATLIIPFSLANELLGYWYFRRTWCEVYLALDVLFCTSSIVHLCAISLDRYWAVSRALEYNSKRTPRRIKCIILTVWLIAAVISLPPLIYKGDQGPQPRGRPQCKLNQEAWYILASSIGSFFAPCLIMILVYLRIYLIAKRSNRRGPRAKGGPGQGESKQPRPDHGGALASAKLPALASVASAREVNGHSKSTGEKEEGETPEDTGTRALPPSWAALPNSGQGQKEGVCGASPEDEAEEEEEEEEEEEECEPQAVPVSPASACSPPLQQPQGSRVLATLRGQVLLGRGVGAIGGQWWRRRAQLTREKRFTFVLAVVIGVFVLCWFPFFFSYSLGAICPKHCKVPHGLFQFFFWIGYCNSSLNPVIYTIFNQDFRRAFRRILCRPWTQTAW
Chain of hERG (KV11.1) channel (Q12809 whole entry): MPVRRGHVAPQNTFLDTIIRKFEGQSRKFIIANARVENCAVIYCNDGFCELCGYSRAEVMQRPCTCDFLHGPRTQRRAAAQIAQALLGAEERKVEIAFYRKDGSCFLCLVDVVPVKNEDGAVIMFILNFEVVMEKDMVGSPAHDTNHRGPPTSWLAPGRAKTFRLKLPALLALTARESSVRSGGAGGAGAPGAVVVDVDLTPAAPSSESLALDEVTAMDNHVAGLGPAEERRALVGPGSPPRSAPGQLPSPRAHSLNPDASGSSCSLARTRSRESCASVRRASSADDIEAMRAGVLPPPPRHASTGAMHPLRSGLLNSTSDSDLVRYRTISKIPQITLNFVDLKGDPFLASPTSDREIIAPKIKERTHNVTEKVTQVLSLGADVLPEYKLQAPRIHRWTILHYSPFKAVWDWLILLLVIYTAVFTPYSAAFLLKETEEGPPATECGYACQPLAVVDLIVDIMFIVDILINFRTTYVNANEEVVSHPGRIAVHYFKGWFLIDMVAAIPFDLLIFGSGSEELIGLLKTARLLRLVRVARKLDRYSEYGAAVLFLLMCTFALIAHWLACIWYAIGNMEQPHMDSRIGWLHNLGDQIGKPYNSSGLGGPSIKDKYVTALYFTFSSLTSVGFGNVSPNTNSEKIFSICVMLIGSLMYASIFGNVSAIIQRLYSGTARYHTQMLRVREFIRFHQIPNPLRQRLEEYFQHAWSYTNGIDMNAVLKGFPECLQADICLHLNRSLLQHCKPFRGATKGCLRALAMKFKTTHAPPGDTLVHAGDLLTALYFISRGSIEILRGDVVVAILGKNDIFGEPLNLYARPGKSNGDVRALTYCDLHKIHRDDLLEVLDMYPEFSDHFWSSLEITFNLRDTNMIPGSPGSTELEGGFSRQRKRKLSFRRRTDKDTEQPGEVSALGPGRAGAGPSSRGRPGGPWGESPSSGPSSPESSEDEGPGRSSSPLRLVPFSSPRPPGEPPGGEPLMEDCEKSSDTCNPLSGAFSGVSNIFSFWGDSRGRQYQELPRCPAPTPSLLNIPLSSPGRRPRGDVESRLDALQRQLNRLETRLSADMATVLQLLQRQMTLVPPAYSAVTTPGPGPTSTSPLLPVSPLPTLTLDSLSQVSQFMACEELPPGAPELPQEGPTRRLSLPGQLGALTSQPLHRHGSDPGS
Chain of α1B (P35368 whole entry): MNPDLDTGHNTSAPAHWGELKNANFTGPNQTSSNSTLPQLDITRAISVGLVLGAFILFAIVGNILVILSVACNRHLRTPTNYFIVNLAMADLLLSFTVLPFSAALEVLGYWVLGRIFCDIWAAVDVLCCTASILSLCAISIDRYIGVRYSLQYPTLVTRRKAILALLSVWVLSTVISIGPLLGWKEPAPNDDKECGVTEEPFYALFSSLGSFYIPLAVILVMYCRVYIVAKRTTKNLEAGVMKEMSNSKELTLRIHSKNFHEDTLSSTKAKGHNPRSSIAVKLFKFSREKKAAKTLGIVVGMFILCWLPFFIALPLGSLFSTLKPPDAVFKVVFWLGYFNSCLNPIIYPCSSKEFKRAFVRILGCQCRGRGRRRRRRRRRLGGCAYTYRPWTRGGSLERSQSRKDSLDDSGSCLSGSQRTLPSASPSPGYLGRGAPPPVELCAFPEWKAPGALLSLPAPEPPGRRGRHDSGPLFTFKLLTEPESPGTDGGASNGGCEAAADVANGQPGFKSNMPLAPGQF

`CCN(CC)C(=O)[C@@H]1C=C2c3cccc4[nH]c(Br)c(c34)C[C@H]2N(C)C1.CCN(CC)C(=O)[C@@H]1C=C2c3cccc4[nH]c(Br)c(c34)C[C@H]2N(C)C1.O=C(O)C(O)C(O)C(=O)O` [2-Br-LSD, (6aR,9R)-2-bromolysergic acid diethylamide (2:1) (+)-tartrate]: the decrease in immobility in series [1] (females, 1 mg/kg IP) was 35.18 ± 10.03 s; in [1] (males, 0.3 mg/kg IP) it was 20.89 ± 8.249 s; in [1] (males, 1 mg/kg IP) it was 27.27 ± 8.226 s; in series [1] (males, 3 mg/kg IP), 31.36 ± 8.226 s. The IC50 in [2] came out at 31600 nM. In addition, the antagonist equilibrium constant (Kb) came to 38 nM in series [3] and 79 nM in series [10]. Moreover, the concentration giving a half-maximal response (EC50) in series [4] stood at 5.1 nM. The “self-grooming time in CVS mice” value in series [5] is recorded as “partial reversal of CVS effects”. For the same compound, the “induction of the HTR” value in [6] (0.1–10 mg/kg IP, male C57BL/6J mice, 60 min) was “did not induce the HTR”. In addition, the “induction of the HTR after S-(–)-raclopride pretreatment” value in series [6] (raclopride 1 mg/kg, then 2-Br-LSD 3 mg/kg) is listed as “did not induce the HTR”. In addition, the EMAX in series [7] is 45.8%. Also, the “agonism at H2” value in series [8] is listed as “weak partial agonism”. Besides, the “activity at 5-HT4” value in [9] is recorded as “lack potent agonist or antagonist activity”.
